Measurements from patent publication US10336762B2 (priority 2017, dated 2019).
Read-outs that look alike come from different tables or passages of the source.

Columns and labels:
[1] = biological target: IRAK4 enzyme (Homo sapiens (Human), UniProt Q9NWZ3); experiment: biochemical; assay type: biochemical; conditions: IRAK4 enzyme, 500 μM ATP
[2] = system: TNFα; experiment: cells; assay type: cell-based, human; conditions: Homo sapiens, Monocyte, LPS-stimulated human monocytes, read-out: EC50 TNF

IRAK4 enzyme, sequence (Q9NWZ3 whole entry): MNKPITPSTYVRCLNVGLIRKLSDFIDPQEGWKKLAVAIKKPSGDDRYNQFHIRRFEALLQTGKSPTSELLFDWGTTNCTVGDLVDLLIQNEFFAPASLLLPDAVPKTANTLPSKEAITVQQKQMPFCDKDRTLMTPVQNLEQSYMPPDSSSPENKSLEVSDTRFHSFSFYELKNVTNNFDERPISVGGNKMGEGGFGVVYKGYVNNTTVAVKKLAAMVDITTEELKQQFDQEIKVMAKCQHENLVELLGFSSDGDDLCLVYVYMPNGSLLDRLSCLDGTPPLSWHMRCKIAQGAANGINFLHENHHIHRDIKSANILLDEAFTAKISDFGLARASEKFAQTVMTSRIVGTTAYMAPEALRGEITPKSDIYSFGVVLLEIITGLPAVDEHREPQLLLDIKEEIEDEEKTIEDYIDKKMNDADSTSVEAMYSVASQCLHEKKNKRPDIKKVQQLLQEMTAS

| SMILES | IC50 ([1]; TR-FRET (HTRF)) [nM] | EC50 ([2]; TNFα content) [nM] | IC50 ([1]; TR-FRET) [nM] | EC50 ([2]; TNFα by TR-FRET) [nM] |
| --- | --- | --- | --- | --- |
| CNc1ccc(Nc2cc(-c3ccc4cc(C#N)cnn34)ncc2C(=O)NC[C@@H](F)C(C)(C)O)cn1 [Example 661, (R)-6-(3-cyanopyrrolo[1,2-b]pyridazin-7-yl)-N-(2-fluoro-3-hydroxy-3-methylbutyl)-4-((6-(methylamino)pyridin-3-yl)amino)nicotinamide] | < 1 | 19 |  |  |
| COc1cccc(Nc2cc(-c3ccc4cc(C#N)cnn34)ncc2C(=O)NC[C@@H](F)C(C)(C)O)c1 [Example 606, (R)-6-(3-cyanopyrrolo[1,2-b]pyridazin-7-yl)-N-(2-fluoro-3-hydroxy-3-methylbutyl)-4-((3-methoxyphenyl)amino) nicotinamide] | 1 | 33 |  |  |
| CC(C)(O)[C@H](F)CNC(=O)c1cnc(-c2ccc3cc(C#N)cnn23)cc1Nc1cccc(F)c1 [Example 384, (R)-6-(3-cyanopyrrolo[1,2-b]pyridazin-7-yl)-N-(2-fluoro-3-hydroxy-3-methylbutyl)-4-((3-fluorophenyl)amino) nicotinamide] |  | 129 | 1 |  |
| CC(C)(O)[C@H](F)CNC(=O)c1cnc(-c2ccc3cc(C#N)cnn23)cc1N[C@H]1CC[C@H](NC(=O)OC2CCC2)CC1 [Example 288, cyclobutyl ((1R,4r)-4-((2-(3-cyanopyrrolo[1,2-b]pyridazin-7-yl)-5-(((R)-2-fluoro-3-hydroxy-3-methylbutyl)carbamoyl)pyridin-4-yl)amino)cyclohexyl)carbamate] |  | 54 | 1 |  |
| COC(=O)C12CCCC(Nc3cc(-c4ccc5cc(C#N)cnn45)ncc3C(=O)NC[C@@H](F)C(C)(C)O)(CC1)CC2 [Example 543, (R)-methyl 5-((2-(3-cyano-pyrrolo[1,2-b]pyridazin-7-yl)-5-((2-fluoro-3-hydroxy-3-methylbutyl)carbamoyl)pyridin-4-yl)amino)bicyclo[3.2.2] nonane-1-carboxylate] | 2 | 49 |  |  |
| CC(C)(O)[C@H](F)CNC(=O)c1cnc(-c2ccc3cc(C#N)cnn23)cc1N[C@H]1CC[C@H](N2CCOC2=O)CC1 [Example 392, 6-(3-cyanopyrrolo[1,2-b]pyridazin-7-yl)-N-((R)-2-fluoro-3-hydroxy-3-methylbutyl)-4-(((1r,4R)-4-(2-oxooxazolidin-3-yl)cyclohexyl)amino) nicotinamide] |  | 50 | < 1 |  |
| CC(C)(O)[C@H](F)CNC(=O)c1cnc(-c2ccc3cc(C#N)cnn23)cc1Nc1cncc(C(F)F)c1 [Example 226, (R)-6-(3-cyanopyrrolo[1,2-b]pyridazin-7-yl)-4-((5-(difluoromethyl)pyridin-3-yl)amino)-N-(2-fluoro-3-hydroxy-3-methylbutyl)nicotinamide] |  | 75 | < 1 |  |
| CN(C)C(=O)NC[C@H]1C[C@H](Nc2cc(-c3ccc4cc(C#N)cnn34)ncc2C(=O)NC[C@@H](F)C(C)(C)O)C1 [Example 541, 6-(3-cyanopyrrolo[1,2-b]pyridazin-7-yl)-4-(((1r,3R)-3-((3,3-dimethyl-ureido)methyl)cyclobutyl)amino)-N-((R)-2-fluoro-3-hydroxy-3-methylbutyl) nicotinamide] | < 1 | 65 |  |  |
| CC(C)(O)[C@H](F)CNC(=O)c1cnc(-c2ccc3cc(C#N)cnn23)cc1N[C@H]1C[C@H](COC(=O)N2CC(F)(F)C2)C1 [Example 738, ((1R,3r)-3-((2-(3-cyano-pyrrolo[1,2-b]pyridazin-7-yl)-5-(((R)-2-fluoro-3-hydroxy-3-methylbutyl)carbamoyl)pyridin-4-yl)amino)cyclobutyl) methyl 3,3-difluoro-azetidine-1-carboxylate] | < 1 | 29 |  |  |
| COC(=O)NCCCCNc1cc(-c2ccc3cc(C#N)cnn23)ncc1C(=O)NC[C@@H](F)C(C)(C)O [Example 717, (R)-methyl (4-((2-(3-cyano-pyrrolo[1,2-b]pyridazin-7-yl)-5-((2-fluoro-3-hydroxy-3-methylbutyl)carbamoyl)pyridin-4-yl)amino)butyl) carbamate] | < 1 | 66 |  |  |
| CC(=O)NC[C@H]1CN(c2ccc(Nc3cc(-c4ccc5cc(C#N)cnn45)ncc3C(=O)NC[C@@H](F)C(C)(C)O)cn2)CCO1 [Example 886, 4-((6-((S)-2-(acetamido-methyl)morpholino)pyridin-3-yl)amino)-6-(3-cyano-pyrrolo[1,2-b]pyridazin-7-yl)-N-((R)-2-fluoro-3-hydroxy-3-methylbutyl) nicotinamide] |  |  | 2 | 29 |
| CC(=O)NC12CC(Nc3cc(-c4ccc5cc(C#N)cnn45)ncc3C(=O)NCC#N)(C1)C2 [Example 496, 4-((3-acetamidobicyclo[1.1.1]pentan-1-yl)amino)-N-(cyanomethyl)-6-(3-cyanopyrrolo[1,2-b]pyridazin-7-yl)nicotinamide] | < 1 | 42 |  |  |
| CC(C)(O)[C@H](F)CNC(=O)c1cnc(-c2ccc3cc(C#N)cnn23)cc1Nc1ccc2nncn2c1 [Example 973, (R)-4-([1,2,4]triazolo[4,3-a]pyridin-6-ylamino)-6-(3-cyanopyrrolo[1,2-b]pyridazin-7-yl)-N-(2-fluoro-3-hydroxy-3-methylbutyl)nicotinamide] |  |  | 2 | 1910 |
| N#Cc1cnn2c(-c3cc(NC45CCC(O)(CC4)CC5)c(C(=O)NCc4cccnc4)cn3)ccc2c1 [Example 931, 6-(3-cyanopyrrolo[1,2-b]pyridazin-7-yl)-4-((4-hydroxybicyclo[2.2.2]octan-1-yl)amino)-N-(pyridin-3-ylmethyl) nicotinamide] |  |  | 3 | 163 |
| COCc1ccc(Nc2cc(-c3ccc4cc(C#N)cnn34)ncc2C(=O)NC[C@@H](F)C(C)(C)O)cc1 [Example 648, (R)-6-(3-cyanopyrrolo[1,2-b]pyridazin-7-yl)-N-(2-fluoro-3-hydroxy-3-methylbutyl)-4-((4-(methoxymethyl)phenyl)amino)nicotinamide] | 1 | 51 |  |  |
| CC(C)Nc1cc(-c2ccc3cc(C#N)cnn23)ncc1C(=O)NCCc1ccc(S(N)(=O)=O)cc1 [Example 21, 6-(3-cyanopyrrolo[1,2-b]pyridazin-7-yl)-4-(isopropylamino)-N-(4-sulfamoylphenethyl) nicotinamide] |  | 69 | < 1 |  |
| COC(=O)NCC12CC(Nc3cc(-c4ccc5cc(C#N)cnn45)ncc3C(=O)NC[C@@H](F)C(C)(C)O)(C1)C2 [Example 547, (R)-methyl ((3-((2-(3-cyanopyrrolo[1,2-b]pyridazin-7-yl)-5-((2-fluoro-3-hydroxy-3-methylbutyl)carbamoyl)pyridin-4-yl)amino)bicyclo[1.1.1]pentan-1-yl)methyl)carbamate] | < 1 | 28 |  |  |
| CC(C)(O)[C@H](F)CNC(=O)c1cnc(-c2ccc3cc(C#N)cnn23)cc1NC1CCNCC1 [Example 23, (R)-6-(3-cyanopyrrolo[1,2-b]pyridazin-7-yl)-N-(2-fluoro-3-hydroxy-3-methylbutyl)-4-(piperidin-4-ylamino)nicotinamide] |  | 676 | 3 |  |
| CC(C)Nc1cc(-c2ccc3cc(C#N)cnn23)ncc1C(=O)NCCC(C)(N)C(F)(F)F (stereo not shown) [Example 561, N-(3-amino-4,4,4-trifluoro-3-methylbutyl)-6-(3-cyano-pyrrolo[1,2-b]pyridazin-7-yl)-4-(isopropylamino) nicotinamide] | 1 | 121 |  |  |
| CC(C)(O)[C@H](F)CNC(=O)c1cnc(-c2ccc3cc(C#N)cnn23)cc1NC1Cc2ccncc2C1 (stereo partly drawn) [Example 672, 6-(3-cyanopyrrolo[1,2-b]pyridazin-7-yl)-4-((6,7-dihydro-5H-cyclopenta[c]pyridin-6-yl)amino)-N-((R)-2-fluoro-3-hydroxy-3-methylbutyl)nicotinamide] | < 1 | 66 |  |  |
| CC(C)(O)[C@H](F)CNC(=O)c1cnc(-c2ccc3cc(C#N)cnn23)cc1NC1CCCCC1 [Example 64, (R)-6-(3-cyanopyrrolo[1,2-b]pyridazin-7-yl)-4-(cyclohexylamino)-N-(2-fluoro-3-hydroxy-3-methylbutyl) nicotinamide] |  | 70 | < 1 |  |
| CC(C)(O)[C@H](F)CNC(=O)c1cnc(-c2ccc3cc(C#N)cnn23)cc1Nc1ccc(N)nc1 [Example 657, (R)-4-((6-aminopyridin-3-yl)amino)-6-(3-cyano-pyrrolo[1,2-b]pyridazin-7-yl)-N-(2-fluoro-3-hydroxy-3-methylbutyl)nicotinamide] | < 1 | 23 |  |  |
| N#Cc1cnn2c(-c3cc(NC45CCC(O)(CC4)CC5)c(C(=O)NCc4ncco4)cn3)ccc2c1 [Example 621, 6-(3-cyanopyrrolo[1,2-b]pyridazin-7-yl)-4-((4-hydroxybicyclo[2.2.2]octan-1-yl)amino)-N-(oxazol-2-ylmethyl) nicotinamide] | 1 | 98 |  |  |
| N#Cc1cnn2c(-c3cc(Nc4cnc5c(c4)OCCO5)c(C(=O)N[C@H]4CC[C@H](NC(=O)C5CC5)CC4)cn3)ccc2c1 [Example 858, 6-(3-cyanopyrrolo[1,2-b]pyridazin-7-yl)-N-((1r,4r)-4-(cyclopropanecarboxamido)cyclohexyl)-4-((2,3-dihydro-[1,4]dioxino[2,3-b]pyridin-7-yl)amino)nicotinamide] |  |  | < 1 | 20 |
| CC(=O)NC12CC(Nc3cc(-c4ccc5cc(C#N)cnn45)ncc3C(=O)NC[C@@H](F)C(C)(C)F)(C1)C2 [Example 494, (R)-4-((3-acetamido-bicyclo[1.1.1]pentan-1-yl)amino)-6-(3-cyano-pyrrolo[1,2-b]pyridazin-7-yl)-N-(2,3-difluoro-3-methylbutyl)nicotinamide] | < 1 | 44 |  |  |
| CC(C)(O)[C@H](F)CNC(=O)c1cnc(-c2ccc3cc(C#N)cnn23)cc1Nc1cnn(CC(F)F)c1 [Example 89, (R)-6-(3-cyanopyrrolo[1,2-b]pyridazin-7-yl)-4-((1-(2,2-difluoroethyl)-1H-pyrazol-4-yl)amino)-N-(2-fluoro-3-hydroxy-3-methylbutyl) nicotinamide] |  | 16 | < 1 |  |
